Experimental findings from patent US20080125475A1 (priority 2006, published 2008) are described below.

The target in data set [1] is T1, ORL1 receptor (Homo sapiens, UniProt P41146).
T1 construct: expressed in transfected cells; host or cells: CHO (recombinant CHO-ORL1 cells), membranes
As to the kind of experiment: biochemical. Type of data set: binding.

Data set [2] has as its system Sprague-Dawley rats. As to the kind of experiment: animal or person. The settings on record: iv. Type of data set: in vivo, rat.
The test system of data set [3] is Sprague-Dawley rats. Briefly: animal or person. It counts as in vivo. The settings on record: Rattus norvegicus, iv, read-out: ED50 acute.
Data set [4] relates to mice. The settings on record: mouse, in vivo.

Usually Ki stands for a measure of affinity in units of concentration, obtained from inhibition or displacement. A low value points to higher affinity. In general, ED50 refers to the dose that gives a 50% effect, or the effect in half of the subjects.

Each structure is given as a SMILES string. Where two headings read alike, the source gives them in different places.

T1 sequence (P41146 whole entry): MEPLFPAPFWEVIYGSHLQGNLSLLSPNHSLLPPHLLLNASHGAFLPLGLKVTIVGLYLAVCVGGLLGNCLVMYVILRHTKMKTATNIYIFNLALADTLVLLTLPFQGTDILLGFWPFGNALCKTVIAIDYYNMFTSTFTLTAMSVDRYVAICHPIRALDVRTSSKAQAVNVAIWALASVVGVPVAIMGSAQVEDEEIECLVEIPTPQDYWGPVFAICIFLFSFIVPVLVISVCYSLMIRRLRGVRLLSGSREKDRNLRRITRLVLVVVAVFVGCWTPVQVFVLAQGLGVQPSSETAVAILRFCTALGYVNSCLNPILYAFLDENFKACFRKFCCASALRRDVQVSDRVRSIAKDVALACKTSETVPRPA

`CCC(=O)C(C[C@@H](C)N(C)C)(c1ccccc1)c1ccccc1` [Compound B7, L-methadone]: the Ki in data set [1] is above 1000 nM. In addition, the ED50 in data set [2] (Rattus norvegicus, read-out: ED50 chronic) worked out at 0.49 mg/kg; in data set [3], 0.21 mg/kg. For the same compound, the “Enhancement of action factor” value in data set [2] (rat, in vivo) is recorded as 0.4x. The naloxone-induced withdrawal jumping result in data set [4] is listed as “reduced in comparison with B1-B4 but is still significant”.
